Reference: patent US11780845B2 (Relay Therapeutics, Inc., priority 2019, dated 2023)

Tests used:
[1] = test system: SNU-16; assay: Cell SNU-16 assay; type: cell-based
[2] = target: FGFR2 (Homo sapiens (Human), UniProt P21802); assay: Biochemical FGFR2 Caliper assay
[3] = Homo sapiens, SNU-16, SNU-16 cells

FGFR2, sequence (P21802 22-821): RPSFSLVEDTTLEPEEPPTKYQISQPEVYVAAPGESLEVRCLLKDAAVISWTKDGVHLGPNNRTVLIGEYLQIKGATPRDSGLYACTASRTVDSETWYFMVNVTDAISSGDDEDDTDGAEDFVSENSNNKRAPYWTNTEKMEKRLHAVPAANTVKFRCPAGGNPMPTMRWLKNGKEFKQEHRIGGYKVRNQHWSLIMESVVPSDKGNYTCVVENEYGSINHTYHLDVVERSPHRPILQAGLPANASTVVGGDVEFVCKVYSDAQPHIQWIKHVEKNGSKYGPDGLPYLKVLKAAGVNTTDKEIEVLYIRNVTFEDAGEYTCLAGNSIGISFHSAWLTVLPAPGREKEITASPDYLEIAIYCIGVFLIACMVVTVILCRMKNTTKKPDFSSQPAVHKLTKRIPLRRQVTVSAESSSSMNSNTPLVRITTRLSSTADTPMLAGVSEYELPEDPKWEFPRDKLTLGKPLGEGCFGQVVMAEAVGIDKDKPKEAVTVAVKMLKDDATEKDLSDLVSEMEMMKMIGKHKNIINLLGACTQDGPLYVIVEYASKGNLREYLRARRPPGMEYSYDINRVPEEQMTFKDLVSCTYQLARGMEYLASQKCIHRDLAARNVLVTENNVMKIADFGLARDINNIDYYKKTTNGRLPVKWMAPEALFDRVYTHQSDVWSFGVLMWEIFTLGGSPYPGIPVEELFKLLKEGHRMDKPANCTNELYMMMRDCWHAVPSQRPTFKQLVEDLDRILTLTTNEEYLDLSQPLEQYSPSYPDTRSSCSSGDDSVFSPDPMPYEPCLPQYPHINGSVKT

| Compound | IC50 [1, 3] | IC50 [2] | IC50 ([1]; SNU-16 cells) |
| --- | --- | --- | --- |
| C=C(CN(C)C)C(=O)Nc1ccc(-c2c(-c3ccc(C(=O)NCC4(F)COC4)cc3)c3c(N)ncnc3n2C)cc1 [Example 1044] | ≤ 100 nM | < 100 nM | – |
| C=CC(=O)N1CCCc2c1nc(-c1c(-c3ccc(Oc4nccc(C)n4)cc3)c3c(N)ncnc3n1C)n2C [Example 1045] | 1000 to 100000 nM | 1000 to 100000 nM | – |
| C=C(C)C(=O)Nc1ccc(-c2c(-c3ccc(C(=O)NCC4CCC4)c(OC)c3)c3c(N)ncnc3n2C)cc1 [Example 1046] | 1000 to 100000 nM | 1000 to 100000 nM | – |
| C=C(C)C(=O)Nc1ccc(-c2c(C3=CCC(S(=O)(=O)C4CCCC4)CC3)c3c(N)ncnc3n2C)cc1 (stereo not shown) [Example 1047] | 250 to 1000 nM | 250 to 1000 nM | – |
| C=Cc1nc2ccc(-c3c(-c4ccc(Oc5nccc(C)n5)cc4)c4c(N)ncnc4n3C)cc2[nH]1 [Example 1048] | 100 to 250 nM | 250 to 1000 nM | – |
| C=CC(=O)Nc1ccc(-c2c(-c3ccc(Oc4cccc(C)n4)cc3)c3c(N)ncnc3n2C)cc1 [Example 1050] | 250 to 1000 nM | 250 to 1000 nM | – |
| C#Cc1ncc(-c2ccc(-c3c(-c4ccc(Oc5nccc(C)n5)cc4)c4c(N)ncnc4n3C)cc2)o1 [Example 1052] | 1000 to 100000 nM | 1000 to 100000 nM | – |
| C=CC(=O)Nc1ccc(-c2c(-c3ccc(Oc4cccc(C)n4)c(F)c3)c3c(N)ncnc3n2C)cc1 [Example 1053] | 250 to 1000 nM | 100 to 250 nM | – |
| C=CC(=O)Nc1ccc(-c2c(-c3ccc(Oc4nccc(C)n4)cc3)c3c(N)ncnc3n2C)c(Cl)c1 [Example 1054] | ≤ 100 nM | < 100 nM | – |
| C=C(C)C(=O)Nc1ccc(-c2c(C3=CC[C@@H](C(=O)N4CCC[C@@H]4C4CC4)CC3)c3c(N)ncnc3n2C)cc1 [Example 1055] | ≤ 100 nM | < 100 nM | – |
| C=C(C)C(=O)Nc1ccc(-c2c(C3=CC[C@@H](C(=O)N4CCC[C@H]4C4CC4)CC3)c3c(N)ncnc3n2C)cc1 [Example 1056] | ≤ 100 nM | 250 to 1000 nM | – |
| C=C(C)C(=O)Nc1ccc(-c2c(-c3ccc(Oc4nccc(C)n4)c(F)c3)c3c(O)ncnc3n2C)cc1 [Example 1057] | ≤ 100 nM | < 100 nM | – |
| C=C(C)C(=O)Nc1ccc(-c2c(C3=CC[C@H](C(=O)N4CCC[C@@H]4C4CC4)CC3)c3c(N)ncnc3n2C)cc1 [Example 1058] | 1000 to 100000 nM | 1000 to 100000 nM | – |
| C=C(C)C(=O)Nc1ccc(-c2c(C3=CC[C@H](C(=O)N4CCC[C@H]4C4CC4)CC3)c3c(N)ncnc3n2C)cc1 [Example 1059] | 1000 to 100000 nM | 1000 to 100000 nM | – |
| C=C1CCN(c2ccc(-c3c(-c4ccc(Oc5nccc(C)n5)cc4)c4c(N)ncnc4n3C)cc2)C1=O [Example 1060] | 1000 to 100000 nM | 1000 to 100000 nM | – |
| CC1=CCN(c2ccc(-c3c(-c4ccc(Oc5nccc(C)n5)cc4)c4c(N)ncnc4n3C)cc2)C1=O [Example 1061] | – | < 100 nM | ≤ 100 nM |
| C#Cc1ncc(-c2c(-c3ccc(Oc4nccc(C)n4)cc3)c3c(N)ncnc3n2C)c(C)n1 [Example 1062] | 1000 to 100000 nM | 1000 to 100000 nM | – |
| C=Cc1ncc(-c2c(-c3ccc(Oc4nccc(C)n4)cc3)c3c(N)ncnc3n2C)c(C)n1 [Example 1063] | ≤ 100 nM | < 100 nM | – |
| C=C(C)C(=O)Nc1ccc(-c2c(-c3ccc(Oc4nccc(C)n4)cc3)c3c(N)ncnc3n2C)c(Cl)c1C [Example 1064] | ≤ 100 nM | < 100 nM | – |
| C=C(C)C(=O)Nc1cc(-c2c(-c3ccc(Oc4nccc(C)n4)cc3)c3c(N)ncnc3n2C)n(C)n1 [Example 1065] | 250 to 1000 nM | 250 to 1000 nM | – |

| Compound | IC50 [1, 3] | IC50 [2] | IC50 ([1]; SNU-16 cells) |
| --- | --- | --- | --- |
| C=C(C)C(=O)Nc1cc(C)c(-c2c(-c3ccc(Oc4nccc(C)n4)cc3)c3c(N)ncnc3n2C)cc1F [Example 1066] | ≤ 100 nM | < 100 nM | – |
| C#Cc1ccc(-c2c(-c3ccc(Oc4nccc(C)n4)cc3)c3c(N)ncnc3n2C)cn1 [Example 1067] | ≤ 100 nM | < 100 nM | – |
| C=C(C)C(=O)Nc1ccc(-c2c(-c3ccc(Oc4nccc(C)n4)c(F)c3)c3c(C)ncnc3n2C)cc1 [Example 1068] | ≤ 100 nM | < 100 nM | – |
| C=C(C)C(=O)Nc1cc(Cl)c(-c2c(-c3ccc(Oc4nccc(C)n4)cc3)c3c(N)ncnc3n2C)cc1C [Example 1069] | 250 to 1000 nM | 250 to 1000 nM | – |
| CC#Cc1ncc(-c2c(-c3ccc(Oc4nccc(C)n4)cc3)c3c(N)ncnc3n2C)cn1 [Example 1070] | ≤ 100 nM | < 100 nM | – |
| C=C(C)C(=O)Nc1ccc(-c2c(-c3ccc(Oc4nccc(C)n4)cc3)c3c(N)ncnc3n2C)c(C)c1Cl [Example 1071] | ≤ 100 nM | 250 to 1000 nM | – |
| C=C(C)C(=O)Nc1cnn(C)c1-c1c(-c2ccc(Oc3nccc(C)n3)cc2)c2c(N)ncnc2n1C [Example 1072] | 250 to 1000 nM | 250 to 1000 nM | – |
| C#Cc1cc(C)c(-c2c(-c3ccc(Oc4nccc(C)n4)cc3)c3c(N)ncnc3n2C)cn1 [Example 1073] | 1000 to 100000 nM | 1000 to 100000 nM | – |
| C=CC(=O)Nc1ccc(-c2c(-c3ccc(C(=O)NC4CCC4)c(OC)c3)c3c(N)ncnc3n2C)cc1 [Example 1074] | ≤ 100 nM | < 100 nM | – |
| C=C1CCN(c2ccc(-c3c(-c4ccc(Oc5nccc(C)n5)cc4)c4c(N)ncnc4n3C)cn2)C1=O [Example 1077] | ≤ 100 nM | < 100 nM | – |
| CC1=CCN(c2ccc(-c3c(-c4ccc(Oc5nccc(C)n5)cc4)c4c(N)ncnc4n3C)cn2)C1=O [Example 1078] | ≤ 100 nM | < 100 nM | – |
| C=C(C)C(=O)Nc1cccc(-c2[nH]c3ncnc(N)c3c2-c2ccc(C(=O)NCC3(F)COC3)cc2)c1 [Example 1079] | ≤ 100 nM | < 100 nM | – |
| C=CC(=O)N1CC=C(c2cccc(-c3c(-c4ccc(Oc5cccc(C)n5)cc4)c4c(N)ncnc4n3C)c2)C1 [Example 1080] | 1000 to 100000 nM | 1000 to 100000 nM | – |
| C#Cc1ncc(-c2c(-c3ccc(Oc4nccc(C)n4)cc3)c3c(N)ncnc3n2C)cc1F [Example 1081] | 250 to 1000 nM | 250 to 1000 nM | – |
| C=CC(=O)Nc1ccccc1-c1c(-c2ccc(Oc3cccc(C)n3)cc2)c2c(N)ncnc2n1C [Example 1082] | ≤ 100 nM | < 100 nM | – |
| C=CC(=O)Nc1ccc(-c2c(-c3ccc(Oc4nccc(C)n4)c(C)c3)c3c(N)ncnc3n2C)c(C)c1 [Example 1083] | 1000 to 100000 nM | 250 to 1000 nM | – |
| Cc1ccnc(Oc2ccc(-c3c(-c4ccc(N5C(=O)C=CC5=O)cc4)n(C)c4ncnc(N)c34)cc2)n1 [Example 1084] | ≤ 100 nM | < 100 nM | – |
| C#Cc1ccc(-c2c(-c3ccc(Oc4nccc(C)n4)cc3)c3c(N)ncnc3n2C)c(C)n1 [Example 1085] | 1000 to 100000 nM | 1000 to 100000 nM | – |
| C=C(C)C(=O)Nc1cnc(-c2c(-c3ccc(Oc4cccc(C)n4)c(F)c3)c3c(N)ncnc3n2C)c(F)c1 [Example 1086] | ≤ 100 nM | < 100 nM | – |
| C=C1CCCN(c2ccc(-c3c(-c4ccc(Oc5nccc(C)n5)cc4)c4c(N)ncnc4n3C)cc2)C1=O [Example 1087] | ≤ 100 nM | < 100 nM | – |

| Compound | IC50 [1, 3] | IC50 [2] | IC50 ([1]; SNU-16 cells) |
| --- | --- | --- | --- |
| C=C1C(=O)N(c2ccc(-c3c(-c4ccc(Oc5nccc(C)n5)cc4)c4c(N)ncnc4n3C)cc2)CC1(C)C [Example 1088] | 250 to 1000 nM | 1000 to 100000 nM | – |
| C=C(C)C(=O)Nc1ccc(-c2c(-c3ccc(Oc4nccc(C)n4)cc3)c3c(N)ncnc3n2C)c(Cl)c1F [Example 1089] | 1000 to 100000 nM | 1000 to 100000 nM | – |
| CC1=CCCN(c2ccc(-c3c(-c4ccc(Oc5nccc(C)n5)cc4)c4c(N)ncnc4n3C)cc2)C1=O [Example 1090] | ≤ 100 nM | < 100 nM | – |
| C=C(C)C(=O)Nc1cc(C)c(-c2c(-c3ccc(Oc4cccc(C)n4)c(F)c3)c3c(N)ncnc3n2C)cn1 [Example 1091] | 1000 to 100000 nM | 1000 to 100000 nM | – |
| C=CC(=O)Nc1ccc(-c2c(-c3ccc(Oc4nccc(C)n4)cc3)c3c(N)ncnc3n2C)c(C)c1 [Example 1092] | ≤ 100 nM | < 100 nM | – |
| C=C(C)C(=O)Nc1ccc(-c2c(-c3ccc(Oc4nccc(C)n4)c(F)c3)c3c(C)ncnc3n2C)c(Cl)c1 [Example 1093] | ≤ 100 nM | < 100 nM | – |
| C=CC(=O)Nc1ccc(-c2c(-c3ccc(Oc4nccc(C)n4)c(F)c3)c3c(C)ncnc3n2C)c(Cl)c1 [Example 1094] | ≤ 100 nM | < 100 nM | – |
| C=C(C)C(=O)Nc1cnc(-c2c(-c3ccc(Oc4cccc(C)n4)c(F)c3)c3c(N)ncnc3n2C)c(C)c1 [Example 1095] | ≤ 100 nM | < 100 nM | – |
| C=C1CCN(c2ccc(-c3c(-c4ccc(Oc5nccc(C)n5)cc4)c4c(N)ncnc4n3C)c(C)c2)C1=O [Example 1096] | ≤ 100 nM | < 100 nM | – |
| C=C(C)C(=O)Nc1cc(C)c(-c2c(-c3ccc(Oc4nccc(C)n4)cc3)c3c(N)ncnc3n2C)c(F)c1 [Example 1097] | ≤ 100 nM | < 100 nM | – |
| C=CC(=O)Nc1cc(-c2c(-c3ccc(Oc4cccc(C)n4)cc3)c3c(N)ncnc3n2C)n(C)n1 [Example 1098] | ≤ 100 nM | < 100 nM | – |
| C=C(C)C(=O)Nc1ccc(-c2c(-c3ccc(Oc4cccc(C)n4)c(F)c3)c3c(N)ncnc3n2C)c(C)n1 [Example 1103] | ≤ 100 nM | < 100 nM | – |
| C=CC(=O)Nc1ccc(-c2c(-c3ccc(Oc4nccc(C)n4)cc3)c3c(C)ncnc3n2C)c(C)c1 [Example 1104] | ≤ 100 nM | < 100 nM | – |
| C=CC(=O)Nc1ccc(-c2c(-c3ccc(Oc4nccc(C)n4)c(F)c3)c3c(C)ncnc3n2C)c(C)c1 [Example 1105] | ≤ 100 nM | < 100 nM | – |
| C=CC(=O)Nc1cc(-c2c(-c3ccc(Oc4nccc(C)n4)cc3)c3c(N)ncnc3n2C)n(C)n1 [Example 1108] | ≤ 100 nM | < 100 nM | – |
| C=C1CN(c2ccc(-c3c(-c4ccc(Oc5nccc(C)n5)cc4)c4c(N)ncnc4n3C)cc2)C1=O [Example 1109] | ≤ 100 nM | < 100 nM | – |
| C=C1CCN(c2ccc(-c3c(-c4ccc(Oc5nccc(C)n5)c(F)c4)c4c(N)ncnc4n3C)cc2)C1=O [Example 1110] | ≤ 100 nM | < 100 nM | – |
| C#Cc1cc(C)c(-c2c(C3=CC[C@H](C(=O)N4CCCC4)CC3)c3c(N)ncnc3n2C)cn1 [Example 1111] | ≤ 100 nM | < 100 nM | – |
| C=CC(=O)Nc1ccc(-c2c(-c3ccc(Oc4nccc(C)n4)c(F)c3)c3c(N)ncnc3n2C)cc1 [Example 1112] | ≤ 100 nM | < 100 nM | – |
